{
  "source": "patent US20060210497A1",
  "about": "“Novel resorcinol derivatives” (Unilever Home & Personal Care USA, Division Of Conopco, Inc., priority 2005, published 2006)",
  "key": {"Mushroom tyrosinase": {"target": "Mushroom tyrosinase", "assay": "Mushroom tyrosinase assay", "format": "biochemical", "conditions": "for pIC50: L-DOPA 0.5 mM, tyrosinase 0.1 mg/ml, phosphate pH 7.0, room temperature; for potency of tyrosinase inhibition, compared in words: cyclohexyl methyl resorcinol compared with ethyl resorcinol", "method": "Mushroom Tyrosinase Assay Mushroom tyrosinase inhibition is indicative of reduction in melanin synthesis, thereby showing skin lightening effect. Reagents: • Assay buffer: phosphate (100 mM, pH 7.0) • Mushroom tyrosinase stock solution (Sigma-Aldrich, Batch # 023K7024): 0.2 mg/ml in assay buffer • L-DOPA stock solution: 1.05 mM in assay buffer • Test compound stock solutions: 10 mM in DMSO Assay Conditions: • Mushroom tyrosinase: 0.1 mg/ml in assay buffer • L-DOPA: 0.5 mM in assay buffer • Test compounds: various concentrations, 2.5% final [DMSO] • Temperature: room temperature Procedure: […] The reaction is started by adding mushroom tyrosinase (100 uL of stock solution) into each well and the absorbance is monitored at 490 nm over a time period of 30 sec to 2 min. The initial reaction velocity in the presence or absence of test compounds is calculated ([…] nm/ min) and the % inhibition of test compounds is calculated using the following equation: [formula] where v0 is the initial reaction velocity in the absence of compound, v is the slope of the reaction in the absence of mushroom tyrosinase and vi is the slope of the reaction in the presence of test compound. The data (% inhibition vs. [test compound]) is fitted using data analysis software and the concentration of test compound at 50% inhibition (IC50) is determined from the fitted data. The IC50 value refers to the skin lightener concentration that results in 50% tyrosinase inhibition relative to the control (with a goal being obtaining maximum tyrosinase inhibition at minimum concentration)."}, "human sebocytes": {"test_system": "human sebocytes", "assay": "Sebocyte assay (14C-acetate incorporation, sebocyte lipid synthesis)", "format": "cell-based", "method": "Sebocyte Assay Procedure:\nSecondary cultures of human sebocytes obtained from an adult […] were grown in 96-well tissue culture plates (Packard) until three days post-confluence. Sebocyte growth medium consisted of Clonetics Keratinocyte Basal Medium (KBM) supplemented with 14 ug/ml bovine pituitary extract, 0.4 ug/ml hydrocortisone, 5 ug/ml insulin, 10 ng/ml epidermal growth factor, 1.2×10^−10 M cholera toxin, 100 units/ml penicillin, and 100 ug/ml streptomycin. All cultures were incubated at 37° C. in the presence of 7.5% CO2. Medium was changed three times per week.\nOn the day of experimentation, the growth medium was removed and the sebocytes washed three times with sterile Dulbecco's Modified Eagle Medium (DMEM; phenol red free). Fresh DMEM was added to each sample (triplicates) with 2-microliters of test agent solubilized in ethanol. Controls consisted of addition of ethanol alone. Each plate was returned to the incubator for 20-hours followed by the addition of ^14C-acetate buffer (5 mM final concentration, 56 mCi/mmol specific activity). Sebocytes were returned to the incubator for 4-hours, after which, each culture was rinsed 3-times with phosphate buffered saline to remove unbound label. Radioactive label remaining in the sebocytes was determined using a Packard TopCount scintillation counter. Statistical significance (p value) was calculated using student's t-test. Phenol Red, a known sebum suppressive agent, was employed as a positive control."}},
  "note": "pIC50: −log10 of the molar value.",
  "data": [
    {"smiles": "Oc1ccc(CC2CCCCC2)c(O)c1", "note": "[CHMR, 4-cyclohexylmethyl resorcinol]", "values": [
      {"measurement": "pIC50", "setting": "Mushroom tyrosinase", "value": 6.02},
      {"measurement": "potency of tyrosinase inhibition, compared in words", "setting": "Mushroom tyrosinase", "value": "comparable potency"},
      {"measurement": "activity at 10 µM", "setting": "human sebocytes; Homo sapiens, 10 uM test agent, 20 h incubation then 4 h 14C-acetate label, read-out: % of Control (ethanol)", "value": 98.9, "unit": "%"},
      {"measurement": "activity at 100 µM", "setting": "human sebocytes; Homo sapiens, 100 uM test agent, 20 h incubation then 4 h 14C-acetate label, read-out: % of Control (ethanol)", "value": 69.3, "unit": "%"},
      {"measurement": "reduction in sebocyte lipid synthesis as compared to the vehicle control", "setting": "human sebocytes; concentration on the order of about 100 micro-molar", "value": "statistically significant reduction"}
    ]},
    {"smiles": "CCc1ccc(O)cc1O", "note": "[4-ethyl resorcinol (ER), 4-ethyl resorcinol, reference compound]", "values": [
      {"measurement": "pIC50", "setting": "Mushroom tyrosinase", "value": 5.96},
      {"measurement": "potency of tyrosinase inhibition, compared in words", "setting": "Mushroom tyrosinase", "value": "comparable potency"}
    ]},
    {"smiles": "O=S1(=O)OC(c2ccc(O)cc2)(c2ccc(O)cc2)c2ccccc21", "note": "[Phenol Red, reference compound]", "values": [
      {"measurement": "activity at 28 µM", "setting": "human sebocytes; Homo sapiens, 28 uM test agent, 20 h incubation then 4 h 14C-acetate label, read-out: % of Control (ethanol)", "value": 84.4, "unit": "%"},
      {"measurement": "activity at 280 µM", "setting": "human sebocytes; Homo sapiens, 280 uM test agent, 20 h incubation then 4 h 14C-acetate label, read-out: % of Control (ethanol)", "value": 45.9, "unit": "%"}
    ]}
  ]
}
